Source: the NIST ThermoML archive (doi:10.1016/j.tca.2006.11.008)
± gives the expanded uncertainty stated by the source.

Test: molar enthalpy of vaporization or sublimation
Details: Crystal, Static calorimetry

molar enthalpy (386 K) [kcal/mol]	molar enthalpy (426.8 K) [kcal/mol]	SMILES
23.9 ± 0.311	–	NC(=O)N1CCCCC1 [1-piperidinecarboxamide]
–	29.5 ± 0.311	NC(=O)C1CCNCC1 [4-piperidinecarboxamide]
26.9 ± 0.311	–	NC(=O)C1CCCNC1 (stereo not drawn) [3-piperidinecarboxamide]
